Data published in article PMC7582770, “Synthesis of “All-Cis” Trihydroxypiperidines from a Carbohydrate-Derived Ketone: Hints for the Design of New β-Gal and GCase Inhibitors” (Molecules, 2020).

Columns and labels:
[1] = target: T1, amyloglucosidase EC 3.2.1.3 (Aspergillus niger, UniProt P69328); test: Commercial glycosidase screening; type: biochemical; conditions: 0.1 mM inhibitor
T1 construct: purchased Sigma-Aldrich or Megazyme Ltd
From the text: (§1) A panel of 12 commercial glycosidases (α-L-fucosidase EC 3.2.1.51 from Homo sapiens, α-galactosidase EC 3.2.1.22 from coffee beans, β-galactosidases EC 3.2.1.23 from Escherichia coli and Aspergillus oryzae, α-glucosidases EC 3.2.1.20 from yeast and rice, amyloglucosidase EC 3.2.1.3 from Aspergillus niger, β-glucosidase EC 3.2.1.21 from almonds, α-mannosidase EC 3.2.1.24 from Jack beans, β-mannosidase EC 3.2.1.25 from snail, β-N-acetylglucosaminidases EC 3.2.1.52 from Jack beans and bovine kidney) purchased from Sigma-Aldrich (St. Louis, MO, USA) or Megazyme Ltd. (Bray, Co. Wicklow, Ireland) was screened.
(§2) The percentage (%) of inhibition towards the corresponding glycosidase was determined in quadruplicate in the presence of 100 μM of the inhibitor on the well. Each enzymatic assay (final volume 0.12 mL) contains 0.01–0.5 units/mL of the enzyme (with previous calibration) and 4.2 mM aqueous solution of the appropriate p-nitrophenyl glycopyranoside (substrate) buffered to the optimal pH of the enzyme. Enzyme and inhibitor were preincubated for 5 min at room temperature, and the reaction started by addition of the substrate. After 20 min of incubation at 37 °C, the reaction was stopped by the addition of 0.1 mL of sodium borate solution (pH 9.8). The p-nitrophenolate formed was measured by visible absorption spectroscopy at 405 nm (Asys Expert 96 spectrophotometer, Biochrom Ltd., Cambridge, England). Under these conditions, the p-nitrophenolate released led to optical densities linear with both reaction time and concentration of the enzyme (for more details, see the Supplementary Materials). The IC50 value (concentration of inhibitor required for 50% inhibition of enzyme activity) was determined from plots of % inhibition vs. different inhibitor concentrations. Each point of the graph is the average of four measures. The standard deviation for each point has been also represented in the graph.

[2] = target: T2, α-L-fucosidase EC 3.2.1.51 (Homo sapiens, UniProt P04066); test: Commercial glycosidase screening; type: biochemical; conditions: 0.1 mM inhibitor
T2 construct: purchased Sigma-Aldrich or Megazyme Ltd
T2 sequence (P04066 32-466): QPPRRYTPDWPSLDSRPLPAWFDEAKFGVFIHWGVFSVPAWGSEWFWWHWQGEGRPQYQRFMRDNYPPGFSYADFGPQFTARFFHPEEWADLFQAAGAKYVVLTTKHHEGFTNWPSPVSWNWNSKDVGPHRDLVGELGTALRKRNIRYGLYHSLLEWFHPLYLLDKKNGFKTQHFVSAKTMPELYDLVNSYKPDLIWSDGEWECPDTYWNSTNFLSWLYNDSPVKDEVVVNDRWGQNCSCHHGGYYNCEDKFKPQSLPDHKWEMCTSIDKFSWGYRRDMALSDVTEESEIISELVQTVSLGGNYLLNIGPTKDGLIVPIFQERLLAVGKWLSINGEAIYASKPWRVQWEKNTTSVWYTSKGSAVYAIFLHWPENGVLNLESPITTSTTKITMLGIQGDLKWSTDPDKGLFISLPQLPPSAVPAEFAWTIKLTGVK
From the text: as §1, §2

[3] = target: T3, α-galactosidase EC 3.2.1.22 (Coffea arabica, UniProt Q42656); test: Commercial glycosidase screening; type: biochemical; conditions: 0.1 mM inhibitor; read-out: % Inhibition at 0.1 mM, α-galactosidase coffee beans
T3 construct: purchased Sigma-Aldrich or Megazyme Ltd
T3 sequence (Q42656 16-378): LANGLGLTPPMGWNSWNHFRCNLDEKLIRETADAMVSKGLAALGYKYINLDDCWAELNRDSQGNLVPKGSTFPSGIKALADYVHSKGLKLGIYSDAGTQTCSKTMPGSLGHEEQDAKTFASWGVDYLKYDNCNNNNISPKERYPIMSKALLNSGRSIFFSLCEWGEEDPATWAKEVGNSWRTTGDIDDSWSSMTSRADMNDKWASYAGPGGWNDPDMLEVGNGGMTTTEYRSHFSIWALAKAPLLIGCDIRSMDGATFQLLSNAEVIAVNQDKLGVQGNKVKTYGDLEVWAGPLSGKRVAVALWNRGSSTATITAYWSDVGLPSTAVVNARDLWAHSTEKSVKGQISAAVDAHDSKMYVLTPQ
From the text: as §1, §2

[4] = target: T4, α-mannosidase EC 3.2.1.24 (Canavalia ensiformis, UniProt C0HJB3); test: Commercial glycosidase screening; type: biochemical; conditions: 0.1 mM inhibitor; read-out: % Inhibition at 0.1 mM, α-mannosidase Jack beans
T4 construct: purchased Sigma-Aldrich or Megazyme Ltd
T4 sequence (C0HJB3 1-981): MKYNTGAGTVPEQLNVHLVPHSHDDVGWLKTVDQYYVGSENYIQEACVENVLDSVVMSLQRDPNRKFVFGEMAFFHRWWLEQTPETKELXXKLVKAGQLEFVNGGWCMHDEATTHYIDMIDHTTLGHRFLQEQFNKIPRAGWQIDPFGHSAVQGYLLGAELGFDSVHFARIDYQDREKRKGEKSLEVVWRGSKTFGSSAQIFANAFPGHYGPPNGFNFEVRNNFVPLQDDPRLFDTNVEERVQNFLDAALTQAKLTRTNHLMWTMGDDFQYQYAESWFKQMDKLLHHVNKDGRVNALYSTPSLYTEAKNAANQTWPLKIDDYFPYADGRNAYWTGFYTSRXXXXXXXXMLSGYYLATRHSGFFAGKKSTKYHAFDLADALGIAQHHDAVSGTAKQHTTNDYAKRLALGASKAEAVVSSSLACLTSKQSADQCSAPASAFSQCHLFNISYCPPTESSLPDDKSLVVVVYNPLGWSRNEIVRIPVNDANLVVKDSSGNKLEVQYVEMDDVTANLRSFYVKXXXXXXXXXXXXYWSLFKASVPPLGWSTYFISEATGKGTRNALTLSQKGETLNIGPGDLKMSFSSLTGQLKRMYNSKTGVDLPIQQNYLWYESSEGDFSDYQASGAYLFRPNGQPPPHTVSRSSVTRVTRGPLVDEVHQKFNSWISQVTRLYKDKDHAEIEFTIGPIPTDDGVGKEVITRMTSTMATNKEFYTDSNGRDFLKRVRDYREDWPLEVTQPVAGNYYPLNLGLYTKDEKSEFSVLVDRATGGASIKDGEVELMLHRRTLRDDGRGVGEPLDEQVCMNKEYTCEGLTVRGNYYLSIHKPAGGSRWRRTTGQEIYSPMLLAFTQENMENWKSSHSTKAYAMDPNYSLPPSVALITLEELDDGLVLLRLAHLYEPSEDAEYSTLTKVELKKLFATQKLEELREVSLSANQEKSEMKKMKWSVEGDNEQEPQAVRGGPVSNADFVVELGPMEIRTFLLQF
From the text: as §1, §2

[5] = target: T5, β-galactosidase EC 3.2.1.23 (Aspergillus oryzae, UniProt Q2UCU3); test: Commercial glycosidase screening; type: biochemical; conditions: 0.1 mM inhibitor
T5 construct: purchased Sigma-Aldrich or Megazyme Ltd
T5 sequence (Q2UCU3 19-1005): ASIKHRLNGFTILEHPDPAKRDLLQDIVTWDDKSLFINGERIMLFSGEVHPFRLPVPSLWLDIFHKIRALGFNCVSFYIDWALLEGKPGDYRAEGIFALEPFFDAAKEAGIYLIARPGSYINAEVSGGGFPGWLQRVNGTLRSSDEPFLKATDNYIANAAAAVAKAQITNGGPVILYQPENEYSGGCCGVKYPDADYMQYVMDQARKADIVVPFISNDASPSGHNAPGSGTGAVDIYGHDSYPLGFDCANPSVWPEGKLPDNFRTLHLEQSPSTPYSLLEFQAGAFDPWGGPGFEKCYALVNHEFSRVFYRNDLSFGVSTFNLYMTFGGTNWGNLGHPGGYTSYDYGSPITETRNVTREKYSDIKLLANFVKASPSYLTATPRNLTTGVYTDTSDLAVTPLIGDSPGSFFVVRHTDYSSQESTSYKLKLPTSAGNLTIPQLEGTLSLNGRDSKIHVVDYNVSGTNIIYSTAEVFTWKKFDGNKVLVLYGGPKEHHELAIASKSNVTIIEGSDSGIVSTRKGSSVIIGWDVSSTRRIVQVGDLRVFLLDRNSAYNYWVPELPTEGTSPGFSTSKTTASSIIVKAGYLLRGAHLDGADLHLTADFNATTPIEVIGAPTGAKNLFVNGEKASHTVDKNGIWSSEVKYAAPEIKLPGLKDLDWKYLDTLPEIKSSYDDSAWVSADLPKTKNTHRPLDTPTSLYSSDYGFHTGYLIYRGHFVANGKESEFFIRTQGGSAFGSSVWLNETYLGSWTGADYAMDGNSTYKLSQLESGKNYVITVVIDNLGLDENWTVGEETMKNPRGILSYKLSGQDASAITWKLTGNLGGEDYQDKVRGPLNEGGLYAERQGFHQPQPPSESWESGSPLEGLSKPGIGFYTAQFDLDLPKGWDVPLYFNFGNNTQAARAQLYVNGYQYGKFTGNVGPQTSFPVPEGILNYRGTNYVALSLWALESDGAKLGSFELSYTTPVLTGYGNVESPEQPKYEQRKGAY
From the text: as §1, §2

[6] = target: T6, β-galactosidase EC 3.2.1.23 (Escherichia coli, UniProt P00722); test: Commercial glycosidase screening; type: biochemical; conditions: read-out: % Inhibition at 0.1 mM, β-galactosidase Escherichia coli
T6 construct: purchased Sigma-Aldrich or Megazyme Ltd
T6 sequence (P00722 2-1024): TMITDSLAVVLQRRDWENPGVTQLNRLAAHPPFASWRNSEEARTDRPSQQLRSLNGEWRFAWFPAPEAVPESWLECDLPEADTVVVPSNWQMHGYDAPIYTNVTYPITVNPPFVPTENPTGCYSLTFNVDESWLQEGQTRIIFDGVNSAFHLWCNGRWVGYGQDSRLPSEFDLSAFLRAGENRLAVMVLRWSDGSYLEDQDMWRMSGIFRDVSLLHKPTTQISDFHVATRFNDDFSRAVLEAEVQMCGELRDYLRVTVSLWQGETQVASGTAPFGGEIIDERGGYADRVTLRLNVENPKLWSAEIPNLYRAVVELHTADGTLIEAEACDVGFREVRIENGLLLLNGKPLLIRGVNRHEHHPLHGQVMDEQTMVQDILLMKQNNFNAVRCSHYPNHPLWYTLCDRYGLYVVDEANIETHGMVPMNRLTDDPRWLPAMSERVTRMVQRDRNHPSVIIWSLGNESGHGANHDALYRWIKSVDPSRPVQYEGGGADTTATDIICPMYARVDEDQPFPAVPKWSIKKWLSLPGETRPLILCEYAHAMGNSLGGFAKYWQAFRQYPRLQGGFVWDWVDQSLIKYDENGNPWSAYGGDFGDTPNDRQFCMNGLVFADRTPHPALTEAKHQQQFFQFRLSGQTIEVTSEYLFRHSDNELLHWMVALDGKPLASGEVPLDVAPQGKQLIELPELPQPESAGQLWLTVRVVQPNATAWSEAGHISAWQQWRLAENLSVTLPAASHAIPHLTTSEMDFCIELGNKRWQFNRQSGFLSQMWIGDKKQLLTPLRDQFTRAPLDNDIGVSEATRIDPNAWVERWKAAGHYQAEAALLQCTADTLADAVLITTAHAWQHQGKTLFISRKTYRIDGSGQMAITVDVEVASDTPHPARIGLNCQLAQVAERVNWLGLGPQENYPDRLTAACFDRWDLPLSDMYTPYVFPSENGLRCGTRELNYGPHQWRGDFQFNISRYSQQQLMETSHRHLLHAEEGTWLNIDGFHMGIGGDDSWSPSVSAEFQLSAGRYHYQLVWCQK
From the text: as §1, §2

[7] = tested on: α-glucosidase EC 3.2.1.20; test: Commercial glycosidase screening; type: biochemical, yeast; conditions: 0.1 mM inhibitor
From the text: as §1, §2

[8] = tested on: β-mannosidase EC 3.2.1.25; test: Commercial glycosidase screening; type: biochemical, snail; conditions: 0.1 mM inhibitor
From the text: as §1, §2

T1 sequence (P69328 25-640): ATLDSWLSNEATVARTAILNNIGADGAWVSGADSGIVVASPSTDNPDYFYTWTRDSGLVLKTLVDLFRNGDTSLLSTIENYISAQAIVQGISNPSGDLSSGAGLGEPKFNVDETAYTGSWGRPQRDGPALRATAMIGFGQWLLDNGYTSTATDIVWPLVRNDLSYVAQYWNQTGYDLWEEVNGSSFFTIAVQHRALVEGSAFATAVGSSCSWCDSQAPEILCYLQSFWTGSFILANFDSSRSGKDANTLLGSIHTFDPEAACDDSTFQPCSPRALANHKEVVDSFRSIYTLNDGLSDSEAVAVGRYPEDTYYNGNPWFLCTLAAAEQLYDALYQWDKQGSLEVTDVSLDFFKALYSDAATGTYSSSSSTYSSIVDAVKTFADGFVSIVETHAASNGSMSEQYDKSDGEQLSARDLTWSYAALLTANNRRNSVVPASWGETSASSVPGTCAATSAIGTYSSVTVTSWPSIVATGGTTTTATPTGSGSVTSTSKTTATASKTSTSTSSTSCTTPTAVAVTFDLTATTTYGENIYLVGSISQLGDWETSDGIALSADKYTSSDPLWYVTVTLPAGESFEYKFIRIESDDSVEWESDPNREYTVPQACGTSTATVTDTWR

Row | Compound | inhibition at 100 µM [1] | inhibition at 100 µM [2] | inhibition at 100 µM [3] | inhibition at 100 µM [4] | inhibition at 100 µM [5] | inhibition at 100 µM [6] | % Inhibition at 0.1 mM, α-glucosidase yeast [7] | % Inhibition at 0.1 mM, β-mannosidase snail [8] | melting point
1 | CCCCCCCCCCCCN[C@H]1CNC[C@@H](O)[C@H]1O [compound 10, (3R, 4S, 5S)-3,4-Dihydroxy-5-(Dodecylamino) Piperidine] | 0% | 0% | 0% | 0% | 0% | 0% | - (no inhibition detected) | - (no inhibition detected) | 92 to 94 °C
2 | CCCCCCCC[C@]1(O)CNC[C@@H](O)[C@H]1O [compound 12, (3S, 4R, 5R)-3,4,5-Trihydroxy-3-Octyl-Piperidine] | 0% | 0% | 0% | 0% | 0% | 0% | - (no inhibition detected) | - (no inhibition detected) | 
3 | CCCCCCCCCO[C@@H]1CNC[C@@H](O)[C@H]1O [compound 21, (3R, 4R, 5R)-4,5-Dihydroxy-3-(Nonyloxy) Piperidine] | 0% | 0% | 0% | 0% | 0% | 0% | - (no inhibition detected) | - (no inhibition detected) | 
